Calls of active or inactive are those of the source. The rule behind the calls is not given here.
Test system: Neuron
Assay: Neurotrophic activity in Sprague-Dawley rat neurons assessed as induction of neurite outgrowth at 0.1 to 10 uM after 5 days by microscopy
Format: functional, cell-based

SMILES: C[C@@H]1[C@H](O)C=C2[C@@]13C[C@@H](OC(=O)[C@@H]3O)[C@@]1(O)C(=O)OC[C@@]21C
- Activity: Active

SMILES: COC(=O)C1(O)O[C@@H]2C[C@@]13C(=CC(=O)[C@@H]3C)[C@]1(C)COC(=O)[C@]21O (mixture of isomers)
- Activity: Active
